Earlier results as cited in patent publication US6949259B1, “Solid preparations for oral use” (Kyorin Pharmaceutical Co., Ltd., priority 1999, dated 2005).

What was measured:
[1] = Nomura M. et al, Bioorg. Med. Chem. Lett., 9 (1999), 533-538
[2] = Nomura M. et al, Bioorg. Med. Chem. Lett., 9 (1999), 533-538; remark: listed apart in the source

COc1ccc(CC2SC(=O)NC2=O)cc1C(=O)NCc1ccc(C(F)(F)F)cc1 (racemic) [KRP-297, (±)-5-[(2,4-dioxothiazolidine-5-yl)methyl]-2-methoxy-N-[[4-(trifluoromethyl)phenyl]methyl]-benzamide]
blood glucose-lowering action [1]: potent blood glucose-lowering action | lipid-lowering action [2]: lipid-lowering action
